From patent publication US20200368247A1, “CENICRIVIROC FOR THE TREATMENT OF FIBROSIS” (Tobira Therapeutics, Inc., priority 2014, published 2020)
Marks after values point to notes of the source that are not given here.

Tests used:
[1] = Study 202 ECG abnormalities; format: in vivo, human; conditions: through Week 48
CCR2 = molecular target: T1, CCR2 (Homo sapiens, UniProt P41597); test: CCR2 receptor occupancy / MCP-1-induced CCR2 internalization in PBMCs, flow cytometry; format: cell-based
T1 construct: endogenous in cells; host or cells: monocytes within PBMCs from HIV+ and HIV- subjects
T1 sequence (P41597 1-360 isoform P41597-2): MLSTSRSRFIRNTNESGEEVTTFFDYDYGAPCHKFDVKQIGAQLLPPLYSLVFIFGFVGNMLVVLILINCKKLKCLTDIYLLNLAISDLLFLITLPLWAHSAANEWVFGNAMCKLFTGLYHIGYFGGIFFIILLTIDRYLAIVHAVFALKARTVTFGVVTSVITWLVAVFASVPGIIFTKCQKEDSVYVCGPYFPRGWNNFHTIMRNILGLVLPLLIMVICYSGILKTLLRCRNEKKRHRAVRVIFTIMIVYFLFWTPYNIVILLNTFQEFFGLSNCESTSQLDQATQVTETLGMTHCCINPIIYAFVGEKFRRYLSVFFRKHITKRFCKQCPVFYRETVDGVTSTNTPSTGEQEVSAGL
Experimental: The capacity of each drug to inhibit CCR5 or CCR2 internalization was evaluated. Cell-surface expression of CCR5 and CCR2 was assessed by flow cytometry, and fluorescence values were converted into molecules of equivalent soluble fluorescence (MESF).

[2] = Study 202 post-hoc APRI and FIB-4 fibrosis index scores; format: in vivo, human
Experimental: APRI and FIB-4 scores were calculated. Change in score category from baseline (BL) to Weeks 24 and 48 was assessed in patients with non-missing data. Correlations between changes from BL in APRI and FIB-4 scores, and MCP-1 (CCR2 ligand) and sCD14 (inflammatory biomarker) levels were evaluated.

[3] = Study 201 safety (adverse events, laboratory); format: in vivo
Experimental: Participants were required to be antiretroviral treatment-experienced, CCR5 antagonist-naive, with HIV-1 RNA levels of at least 5000 copies/mL and CD4+ cell counts of at least 250 cells/mm^3 was performed.
There were no deaths, SAEs, or other significant AEs, and there were no discontinuations because of an AE. Most treatment-emergent AEs were mild or moderate in severity. […] The most common (≥10%) treatment-emergent AEs in this study were nausea (18.5%), diarrhea (16.7%), headache (14.8%), and fatigue (11.0%).
There were 6 subjects with ALT and/or AST elevations in the 25 mg (2 subjects), 50 mg (2 subjects), 100 mg (1 subject), and 150 mg (1 subject) dose groups, and 1 subject with an AST elevation in the placebo group during the observation period. All elevations were Grade 1, were isolated except in 2 subjects (both in the 50-mg dose group) who had more than a single elevation, and resolved without sequelae. […] The AST elevations observed in subjects in the 100 mg and 150 mg dose groups during treatment (observed in 1 subject in each dose group), returned to normal values during continuation of treatment.

For `CCCCOCCOc1ccc(-c2ccc3c(c2)/C=C(/C(=O)Nc2ccc([S@@+]([O-])Cc4cncn4CCC)cc2)CCCN3CC(C)C)cc1` [CVC, (S)-8-[4-(2-Butoxyethoxy)phenyl]-1-isobutyl-N-(4-{[(1-propyl-1H-imidazol-5-yl)methyl]sulfinyl}phenyl)-1,2,3,4-tetrahydro-1-benzazocine-5-carboxamide], the “PR Abnormally high (210 ms ≤ abnormally high)” value ([1]; CVC 100 mg (N = 58)) was 2 (3%) n (%), the “QRS Abnormally high (120 ms ≤ abnormally high)” value ([1]; CVC 100 mg (N = 58)) was 1 (2%)^d n (%) and the “QRS Abnormally low (≤ 50 ms)” value ([1]; CVC 100 mg (N = 58)) was 0 n (%). The “QTcB interval Borderline (450 ms ≤ borderline ≤ 480 ms)” value ([1]; CVC 100 mg (N = 58)) was 4 (8%) n (%), the “QTcB interval Increase by >30-60 ms” value ([1]; CVC 100 mg (N = 58)) was 6 (12%) n (%) and the “QTcB interval Increase by >60 ms” value ([1]; CVC 100 mg (N = 58)) was 1 (2%) n (%). The “QTcB interval Pathologically prolonged (> 500 ms)” value ([1]; CVC 100 mg (N = 58)) was 0 n (%), the “QTcB interval Prolonged (480 ms < prolonged ≤ 500 ms)” value ([1]; CVC 100 mg (N = 58)) was 0 n (%) and the “QTcF interval Borderline (450 ms ≤ borderline ≤ 480 ms)” value ([1]; CVC 100 mg (N = 58)) was 1 (2%) n (%). The “QTcF interval Increase by >30-60 ms” value ([1]; CVC 100 mg (N = 58)) was 4 (8%) n (%), the “QTcF interval Increase by >60 ms” value ([1]; CVC 100 mg (N = 58)) was 1 (2%) n (%) and the “QTcF interval Pathologically prolonged (> 500 ms)” value ([1]; CVC 100 mg (N = 58)) was 0 n (%). The “QTcF interval Prolonged (480 ms < prolonged ≤ 500 ms)” value ([1]; CVC 100 mg (N = 58)) was 0 n (%), the “HR Abnormally high (120 bpm ≤ abnormally high)” value ([1]; CVC 200 mg (N = 57)) was 0 n (%) and the “HR Abnormally low (≤ 50 bpm)” value ([1]; CVC 200 mg (N = 57)) was 0 n (%). The “PR Abnormally high (210 ms ≤ abnormally high)” value ([1]; CVC 200 mg (N = 57)) was 1 (2%) n (%), the “QRS Abnormally high (120 ms ≤ abnormally high)” value ([1]; CVC 200 mg (N = 57)) was 0 n (%) and the “QRS Abnormally low (≤ 50 ms)” value ([1]; CVC 200 mg (N = 57)) was 0 n (%). The “QTcB interval Borderline (450 ms ≤ borderline ≤ 480 ms)” value ([1]; CVC 200 mg (N = 57)) was 2 (4%) n (%), the “QTcB interval Increase by >30-60 ms” value ([1]; CVC 200 mg (N = 57)) was 3 (6%) n (%) and the “QTcB interval Increase by >60 ms” value ([1]; CVC 200 mg (N = 57)) was 0 n (%). The “QTcB interval Pathologically prolonged (> 500 ms)” value ([1]; CVC 200 mg (N = 57)) was 0 n (%), the “QTcB interval Prolonged (480 ms < prolonged ≤ 500 ms)” value ([1]; CVC 200 mg (N = 57)) was 0 n (%) and the “QTcF interval Borderline (450 ms ≤ borderline ≤ 480 ms)” value ([1]; CVC 200 mg (N = 57)) was 1 (2%) n (%). The “QTcF interval Increase by >30-60 ms” value ([1]; CVC 200 mg (N = 57)) was 3 (6%) n (%), the “QTcF interval Increase by >60 ms” value ([1]; CVC 200 mg (N = 57)) was 0 n (%) and the “QTcF interval Pathologically prolonged (> 500 ms)” value ([1]; CVC 200 mg (N = 57)) was 0 n (%). The “QTcF interval Prolonged (480 ms < prolonged ≤ 500 ms)” value ([1]; CVC 200 mg (N = 57)) was 0 n (%), the “concentration required to reach >80% receptor occupancy” value (CCR2; CCR2, average) was 1.8 nM and the “prevention of MCP-1-induced CCR2 internalization” value (CCR2; PBMCs) was “at lower concentrations than BMS-22”. For the same compound, the CCR2 cell-surface expression (CCR2; in the absence of MCP-1, monocytes) was “decreased cell-surface expression on monocytes”, the “APRI 0.5-1.5, patients” value ([2]; Baseline) was 14% and the “APRI <0.5, patients” value ([2]; Baseline) was 84%. For the same compound, the “APRI >1.5, patients” value ([2]; Baseline) was 2%, the “FIB-4 1.45-3.25, patients” value ([2]; Baseline) was 17% and the “FIB-4 <1.45, patients” value ([2]; Baseline) was 82%. The “FIB-4 >3.25, patients” value ([2]; Baseline) was 1%, the “APRI 0.5-1.5, patients” value ([2]; Week 24) was 7% and the “APRI <0.5, patients” value ([2]; Week 24) was 93%. The “APRI decreased 1 category from baseline, patients” value ([2]; Week 24) was 14%, the “FIB-4 1.45-3.25, patients” value ([2]; Week 24) was 7% and the “FIB-4 <1.45, patients” value ([2]; Week 24) was 93%. For the same compound, the “FIB-4 decreased 1 category from baseline, patients” value ([2]; Week 24) was 13%, the “APRI 0.5-1.5, patients” value ([2]; Week 48) was 8% and the “APRI <0.5, patients” value ([2]; Week 48) was 91%. The “APRI >1.5, patients” value ([2]; Week 48) was 1%, the “APRI decreased 1 category from baseline, patients” value ([2]; Week 48) was 10% and the “FIB-4 1.45-3.25, patients” value ([2]; Week 48) was 5%. The “FIB-4 <1.45, patients” value ([2]; Week 48) was 94%, the “FIB-4 >3.25, patients” value ([2]; Week 48) was 1% and the “FIB-4 decreased 1 category from baseline, patients” value ([2]; Week 48) was 14%. The “subjects with improvements in APRI and FIB-4 scores over time” value ([2]; pooled CVC 100 mg and 200 mg) was at least 10%, the “subjects with ALT and/or AST elevations (Grade 1)” value (“subjects … (Grade 1)” below) ([3]; 25 mg) was 2 subjects and the “subjects … (Grade 1)” value ([3]; 50 mg) was 2 subjects. The “subjects … (Grade 1)” value ([3]; 100 mg) was 1 subject, the “subjects … (Grade 1)” value ([3]; 150 mg) was 1 subject and the tolerability ([3]; 25 to 150 mg once daily, 10 days) was “generally well tolerated at the doses studied”.
